Data as given in ChEMBL document CHEMBL4419173, “Small-molecule inhibitors targeting g-protein-coupled rho guanine nucleotide exchange factors” (2014).
The source made the active and inactive calls. No cut-off for these calls is given here.

What was measured:
[1] = target: Protein diaphanous homolog 1/Transforming protein RhoA (Homo sapiens) (UniProt P61586+O60610); assay: Inhibition of human mDia1 expressed in mouse NIH/3T3 cells assessed as reduction in human full length RhoA (1 to 193 residues) interaction with mDia1 at 50 to 100 uM incubated for 1 hr by Western blot analysis based His-RhoA pull-down assay; assay type: cell-based
MCF7 [2] = assay: Inhibition of mammospheres formation in human MCF7 cells at 2.5 to 15 uM in presence of 2.5 to 15 uM Rhosin/G04 incubated for 10 days; assay type: functional, cell-based
Mus musculus [3] = organism: Mus musculus; assay: Inhibition of RhoGEF in mouse NIH/3T3 cells assessed as inhibition of 10% calf serum-induced RhoA-GTP formation by measuring RhoA-GTP level at 10 uM incubated for 24 hrs by densitometry relative to control (reference value: 2.15); assay type: cell-based
MCF7 [4] = assay: Inhibition of RhoGEF in human MCF7 cells derived mammospheres assessed as inhibition of 10% calf serum-induced RhoA-GTP formation by measuring relative RhoA-GTP level at 5 uM in presence of 5 uM Rhosin/G04 incubated for 24 hrs by densitometry (reference value: 1); assay type: cell-based
[5] = target: Rho-associated protein kinase 2/Transforming protein RhoA (Homo sapiens) (UniProt O75116+P61586); assay: Inhibition of human ROCK2 expressed in mouse NIH/3T3 cells assessed as reduction in human full length RhoA (1 to 193 residues) interaction with ROCK2 at 50 to 200 uM incubated for 1 hr by Western blot analysis based His-RhoA pull-down assay; assay type: cell-based
Chain of Rho-associated protein kinase 2/Transforming protein RhoA (Homo sapiens) (O75116 whole entry, looked up, the tested form may be a part): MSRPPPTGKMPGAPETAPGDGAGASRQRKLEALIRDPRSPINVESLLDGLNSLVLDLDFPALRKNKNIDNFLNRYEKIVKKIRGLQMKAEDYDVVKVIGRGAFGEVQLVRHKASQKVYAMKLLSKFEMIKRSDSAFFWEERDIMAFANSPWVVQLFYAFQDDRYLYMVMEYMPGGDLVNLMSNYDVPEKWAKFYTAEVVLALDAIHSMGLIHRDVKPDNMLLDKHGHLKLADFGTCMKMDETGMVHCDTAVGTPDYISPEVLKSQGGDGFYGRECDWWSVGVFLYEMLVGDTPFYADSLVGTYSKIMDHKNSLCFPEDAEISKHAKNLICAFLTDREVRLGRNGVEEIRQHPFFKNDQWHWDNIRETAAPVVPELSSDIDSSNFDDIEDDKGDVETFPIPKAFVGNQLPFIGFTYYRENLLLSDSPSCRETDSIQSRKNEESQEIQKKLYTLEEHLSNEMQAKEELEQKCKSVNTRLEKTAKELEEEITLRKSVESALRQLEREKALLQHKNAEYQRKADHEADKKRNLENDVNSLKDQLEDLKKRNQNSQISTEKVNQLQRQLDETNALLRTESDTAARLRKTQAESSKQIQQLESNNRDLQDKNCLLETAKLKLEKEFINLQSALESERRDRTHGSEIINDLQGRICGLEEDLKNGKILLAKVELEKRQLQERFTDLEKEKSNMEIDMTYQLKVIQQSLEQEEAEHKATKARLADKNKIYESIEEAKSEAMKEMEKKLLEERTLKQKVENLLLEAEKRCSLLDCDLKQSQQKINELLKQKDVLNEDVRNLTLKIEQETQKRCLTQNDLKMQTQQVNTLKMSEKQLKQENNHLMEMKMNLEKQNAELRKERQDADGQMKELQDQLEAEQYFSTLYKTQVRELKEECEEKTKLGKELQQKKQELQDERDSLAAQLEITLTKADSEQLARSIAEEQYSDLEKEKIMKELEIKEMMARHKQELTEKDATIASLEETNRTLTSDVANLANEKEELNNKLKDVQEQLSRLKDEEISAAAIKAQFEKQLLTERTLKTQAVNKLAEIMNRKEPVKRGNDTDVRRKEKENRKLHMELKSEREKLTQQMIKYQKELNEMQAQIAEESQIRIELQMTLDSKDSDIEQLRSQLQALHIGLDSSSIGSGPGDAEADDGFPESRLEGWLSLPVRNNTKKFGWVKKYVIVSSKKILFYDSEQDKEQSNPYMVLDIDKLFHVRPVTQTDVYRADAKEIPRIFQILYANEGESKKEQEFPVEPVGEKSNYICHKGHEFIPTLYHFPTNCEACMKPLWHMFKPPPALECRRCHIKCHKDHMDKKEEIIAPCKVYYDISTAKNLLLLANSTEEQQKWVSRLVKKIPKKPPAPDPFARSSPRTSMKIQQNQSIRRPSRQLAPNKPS
Chain of Rho-associated protein kinase 2/Transforming protein RhoA (Homo sapiens) (P61586 whole entry, looked up, the tested form may be a part): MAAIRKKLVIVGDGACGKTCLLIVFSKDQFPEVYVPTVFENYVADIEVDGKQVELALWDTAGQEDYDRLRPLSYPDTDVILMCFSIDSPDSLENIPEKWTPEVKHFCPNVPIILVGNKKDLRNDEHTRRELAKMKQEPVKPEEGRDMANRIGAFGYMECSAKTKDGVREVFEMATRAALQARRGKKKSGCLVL

[6] = target: Rho guanine nucleotide exchange factor 12 (Homo sapiens, UniProt Q9NZN5, V1099A); assay: Binding affinity to recombinant human LARG (765 to 1138 residues) V1099A mutant by microscale thermophoresis analysis
Chain of Rho guanine nucleotide exchange factor 12 (Homo sapiens, UniProt Q9NZN5, V1099A) (Q9NZN5 2-1544 V1099A limits assumed): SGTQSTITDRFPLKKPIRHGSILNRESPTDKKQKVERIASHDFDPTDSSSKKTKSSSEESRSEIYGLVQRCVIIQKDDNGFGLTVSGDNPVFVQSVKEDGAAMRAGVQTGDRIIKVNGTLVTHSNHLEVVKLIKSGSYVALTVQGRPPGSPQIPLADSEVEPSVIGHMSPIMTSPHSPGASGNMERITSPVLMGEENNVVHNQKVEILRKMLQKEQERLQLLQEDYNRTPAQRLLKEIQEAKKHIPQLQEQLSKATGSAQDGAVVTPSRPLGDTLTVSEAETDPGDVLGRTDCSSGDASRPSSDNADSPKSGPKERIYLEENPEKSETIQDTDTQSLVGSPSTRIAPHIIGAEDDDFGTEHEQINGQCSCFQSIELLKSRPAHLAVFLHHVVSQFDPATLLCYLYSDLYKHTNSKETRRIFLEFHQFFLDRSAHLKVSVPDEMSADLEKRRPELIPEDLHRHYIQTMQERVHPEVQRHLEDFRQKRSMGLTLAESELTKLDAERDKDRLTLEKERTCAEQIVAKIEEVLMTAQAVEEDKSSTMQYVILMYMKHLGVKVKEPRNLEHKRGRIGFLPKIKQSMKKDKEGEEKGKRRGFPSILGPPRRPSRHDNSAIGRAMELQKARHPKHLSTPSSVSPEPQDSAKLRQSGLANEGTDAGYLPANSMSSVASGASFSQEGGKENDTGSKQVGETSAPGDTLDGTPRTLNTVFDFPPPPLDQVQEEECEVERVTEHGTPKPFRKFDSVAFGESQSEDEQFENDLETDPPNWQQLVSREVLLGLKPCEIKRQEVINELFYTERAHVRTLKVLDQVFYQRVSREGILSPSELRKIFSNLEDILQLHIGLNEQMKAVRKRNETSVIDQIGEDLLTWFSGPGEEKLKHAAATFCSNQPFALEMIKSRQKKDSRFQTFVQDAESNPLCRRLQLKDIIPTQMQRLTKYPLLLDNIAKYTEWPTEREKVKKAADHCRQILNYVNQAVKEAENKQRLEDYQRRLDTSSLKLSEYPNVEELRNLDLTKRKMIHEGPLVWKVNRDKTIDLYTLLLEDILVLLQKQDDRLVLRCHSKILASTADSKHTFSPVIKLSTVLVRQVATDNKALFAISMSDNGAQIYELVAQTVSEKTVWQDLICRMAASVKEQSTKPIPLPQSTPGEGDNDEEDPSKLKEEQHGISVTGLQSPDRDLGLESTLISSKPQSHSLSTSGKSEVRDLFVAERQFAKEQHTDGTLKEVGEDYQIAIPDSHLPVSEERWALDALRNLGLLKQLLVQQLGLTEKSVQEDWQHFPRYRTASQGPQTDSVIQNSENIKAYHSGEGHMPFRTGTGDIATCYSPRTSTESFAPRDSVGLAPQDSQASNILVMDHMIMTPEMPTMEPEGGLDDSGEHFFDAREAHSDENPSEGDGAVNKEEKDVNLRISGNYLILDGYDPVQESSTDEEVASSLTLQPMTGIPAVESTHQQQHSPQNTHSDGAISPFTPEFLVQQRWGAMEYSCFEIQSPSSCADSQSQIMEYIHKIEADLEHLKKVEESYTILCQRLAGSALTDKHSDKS

MCF7 [7] = assay: Growth inhibition of human MCF7 cells at 5 to 50 uM; assay type: functional, cell-based
Mus musculus [8] = organism: Mus musculus; assay: Inhibition of RhoGEF in mouse NIH/3T3 cells assessed as inhibition of 10% calf serum-induced Cdc42-GTP formation by measuring relative Cdc42-GTP level at 50 uM in presence of 50 uM Rhosin/G04 incubated for 24 hrs by densitometry (reference value: 1); assay type: cell-based
Mus musculus [9] = organism: Mus musculus; assay: Inhibition of RhoGEF-mediated RhoA signaling in mouse NIH/3T3 cells assessed as inhibition of serum -induced phospho-MLC formation at 10 to 30 uM incubated for 24 hrs by densitometry; assay type: cell-based
[10] = target: Rho guanine nucleotide exchange factor 12 (Homo sapiens, UniProt Q9NZN5, N983A); assay: Binding affinity to recombinant human LARG (765 to 1138 residues) N983A mutant by microscale thermophoresis analysis
Chain of Rho guanine nucleotide exchange factor 12 (Homo sapiens, UniProt Q9NZN5, N983A) (Q9NZN5 2-1544 N983A limits assumed): as the sequence (Q9NZN5 2-1544 V1099A limits assumed) above, with N982A, A1098V counted along it

[11] = tested on: Rho-associated protein kinase 2 (Homo sapiens), O75116 [UNDEFINED MUTATION]; assay: Inhibition of constitutively active ROCK2 mutant (unknown origin) expressed in mouse NIH/3T3 cells assessed as reduction in 10% calf serum-induced focal adhesion complex formation at 530 uM by anti-vinculin antibody staining based assay; assay type: cell-based
Chain of Rho-associated protein kinase 2 (Homo sapiens), O75116 [UNDEFINED MUTATION] (O75116 whole entry, looked up, change not shown): as the sequence (O75116 whole entry, looked up, the tested form may be a part) above

Mus musculus [12] = organism: Mus musculus; assay: Inhibition of RhoGEF in mouse NIH/3T3 cells assessed as inhibition of 10% calf serum-induced RhoA-GTP formation by measuring relative RhoA-GTP level at 50 uM in presence of 50 uM Rhosin/G04 incubated for 24 hrs by densitometry (reference value: 1); assay type: cell-based
MCF7 [13] = assay: Inhibition of cell migration of human MCF7 cells at 2.5 to 30 uM in presence of 2.5 to 30 uM Rhosin/G04; assay type: functional, cell-based
MCF7 [14] = assay: Inhibition of RhoGEF in human MCF7 cells derived mammospheres assessed as inhibition of RhoA-mediated phospho-MLC formation incubated for 24 hrs by densitometry; assay type: cell-based
Mus musculus [15] = organism: Mus musculus; assay: Inhibition of RhoGEF in mouse NIH/3T3 cells assessed as inhibition of 10% calf serum-induced RhoA-GTP formation by measuring reduction in RhoA-GTP level at 30 uM incubated for 24 hrs by densitometry relative to control; assay type: cell-based
[16] = target: Serine/threonine-protein kinase N1/Transforming protein RhoA (Homo sapiens) (UniProt Q16512+P61586); assay: Inhibition of human PKN1 expressed in mouse NIH/3T3 cells assessed as reduction in human full length RhoA (1 to 193 residues) interaction with PKN1 at 50 to 200 uM incubated for 1 hr by Western blot analysis based His-RhoA pull-down assay; assay type: cell-based
Chain of Serine/threonine-protein kinase N1/Transforming protein RhoA (Homo sapiens) (P61586 whole entry, looked up, the tested form may be a part): as the sequence (P61586 whole entry, looked up, the tested form may be a part) above
Chain of Serine/threonine-protein kinase N1/Transforming protein RhoA (Homo sapiens) (Q16512 whole entry, looked up, the tested form may be a part): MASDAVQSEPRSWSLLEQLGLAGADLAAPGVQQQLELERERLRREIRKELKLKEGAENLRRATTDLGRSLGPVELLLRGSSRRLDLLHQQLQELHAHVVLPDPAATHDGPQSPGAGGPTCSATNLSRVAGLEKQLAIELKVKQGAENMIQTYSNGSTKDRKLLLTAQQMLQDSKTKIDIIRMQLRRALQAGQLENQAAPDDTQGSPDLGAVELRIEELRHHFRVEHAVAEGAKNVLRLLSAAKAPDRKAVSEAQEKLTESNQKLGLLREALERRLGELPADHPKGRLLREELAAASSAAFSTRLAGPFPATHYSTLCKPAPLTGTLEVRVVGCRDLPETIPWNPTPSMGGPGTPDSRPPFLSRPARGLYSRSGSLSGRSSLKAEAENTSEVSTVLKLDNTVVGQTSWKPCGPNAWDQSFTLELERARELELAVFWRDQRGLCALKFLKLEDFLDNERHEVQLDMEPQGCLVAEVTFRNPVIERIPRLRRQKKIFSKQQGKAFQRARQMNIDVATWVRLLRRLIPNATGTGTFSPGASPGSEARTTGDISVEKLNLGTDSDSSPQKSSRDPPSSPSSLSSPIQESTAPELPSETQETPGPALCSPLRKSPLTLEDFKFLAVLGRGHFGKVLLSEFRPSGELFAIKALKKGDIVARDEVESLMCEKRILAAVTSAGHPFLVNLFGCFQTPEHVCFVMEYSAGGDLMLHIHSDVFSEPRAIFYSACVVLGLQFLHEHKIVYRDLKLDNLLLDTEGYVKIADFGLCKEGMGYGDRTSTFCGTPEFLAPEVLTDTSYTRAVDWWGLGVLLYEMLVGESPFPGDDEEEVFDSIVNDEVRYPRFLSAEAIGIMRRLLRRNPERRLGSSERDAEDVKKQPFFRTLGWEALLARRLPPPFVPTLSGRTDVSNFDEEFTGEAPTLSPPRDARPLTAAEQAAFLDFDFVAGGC

Mus musculus [17] = organism: Mus musculus; assay: Inhibition of RhoGEF in mouse NIH/3T3 cells assessed as reduction in 10% calf serum-induced rhoA-mediated actin stress fiber formation at 10 uM by rhodamine-phalloidin staining based assay; assay type: cell-based
[18] = target: RhoGEF 1/Transforming protein RhoA (Homo sapiens) (UniProt P61586+Q92888); assay: Binding affinity to human LARG (765 to 1138 residues) DH-PH module expressed in mouse NIH/3T3 cells assessed as reduction in LARG binding to human full length RhoA (1 to 193 residues) by measuring relative LARG binding level at 5 uM in presence of 5 uM Rhosin/G04 pull-down assay (reference value: 1 No unit); assay type: cell-based
Homo sapiens = organism: Homo sapiens; assay: Inhibition of GST-tagged human TrioN RhoGEF (1284 to 1711 residues) expressed in mouse NIH/3T3 cells assessed as reduction in human full length Rac1 (1 to 192 residues) interaction with TrioN RhoGEF at 50 to 200 uM incubated for 1 hr by Western blot analysis based pull-down assay; assay type: cell-based
Mus musculus [19] = organism: Mus musculus; assay: Inhibition of RhoGEF in mouse NIH/3T3 cells assessed as reduction in 10% calf serum-induced rhoA-mediated actin stress fiber formation at 2.5 uM in presence of 2.5 uM Rhosin/G04 by rhodamine-phalloidin staining based assay; assay type: cell-based
Mus musculus [20] = organism: Mus musculus; assay: Inhibition of RhoGEF-mediated Cdc42 signaling in mouse NIH/3T3 cells assessed as reduction in Bradykinin-stimulated Cdc42-mediated filopodia formation at 10 to 30 uM; assay type: cell-based
Mus musculus [21] = organism: Mus musculus; assay: Inhibition of RhoGEF in mouse NIH/3T3 cells assessed as inhibition of 10% calf serum-induced Cdc42-GTP formation by measuring relative Cdc42-GTP level at 50 uM incubated for 24 hrs by densitometry (reference value: 1); assay type: cell-based
Mus musculus [22] = organism: Mus musculus; assay: Inhibition of RhoGEF in mouse NIH/3T3 cells assessed as inhibition of 10% calf serum-induced RhoA-GTP formation by measuring RhoA-GTP level at 30 uM incubated for 24 hrs by densitometry relative to control (reference value: 2.15); assay type: cell-based
Mus musculus [23] = organism: Mus musculus; assay: Inhibition of RhoGEF in mouse NIH/3T3 cells assessed as inhibition of 10% calf serum-induced Rac1-GTP formation by measuring relative Rac1-GTP level at 50 uM incubated for 24 hrs by densitometry (reference value: 1); assay type: cell-based
MCF7 [24] = assay: Growth inhibition of human MCF7 cells at 2.5 to 15 uM in presence of 2.5 to 15 uM Rhosin/G04; assay type: functional, cell-based
MCF7 [25] = assay: Inhibition of cell migration of human MCF7 cells at 10 to 50 uM; assay type: functional, cell-based

SMILES: Cc1cccc(COc2cccc(/C=C3\C(=O)NN(c4ccccc4)C3=O)c2)c1
- inhibition [1]: inactive
- inhibition (MCF7 [2]): Active
- fold change (FC) (Mus musculus [3]): 1.09
- fold change (FC) (MCF7 [4]): 0.11
- inhibition [5]: inactive
- Kd [6]: 79 nM
- growth inhibition (GI) (MCF7 [7]): Active
- fold change (FC) (Mus musculus [8]): 1.27
- inhibition (Mus musculus [9]): Active
- Kd [10]: > 500000 nM
- inhibition [11]: inactive
- fold change (FC) (Mus musculus [12]): 0
- inhibition (MCF7 [13]): Active
- inhibition (MCF7 [14]): Dose-dependent effect
- inhibition (Mus musculus [15]): 80%
- inhibition [16]: inactive
- inhibition (Mus musculus [17]): Active
- fold change (FC) [18]: 0.28
- inhibition (Homo sapiens): inactive
- inhibition (Mus musculus [19]): Active
- inhibition (Mus musculus [20]): inactive
- fold change (FC) (Mus musculus [21]): 1.25
- fold change (FC) (Mus musculus [22]): 0.87
- fold change (FC) (Mus musculus [23]): 0.93
- growth inhibition (GI) (MCF7 [24]): Active
- inhibition (MCF7 [25]): Active
